The target in this test is T1, human FSH receptor (Homo sapiens, UniProt P23945).
T1 construct: expressed in transfected cells; host or cells: Chinese Hamster Ovary (CHO) cells, stably transfected; cotransfected with CRE/promoter-firefly luciferase reporter
T1 sequence (P23945 18-695): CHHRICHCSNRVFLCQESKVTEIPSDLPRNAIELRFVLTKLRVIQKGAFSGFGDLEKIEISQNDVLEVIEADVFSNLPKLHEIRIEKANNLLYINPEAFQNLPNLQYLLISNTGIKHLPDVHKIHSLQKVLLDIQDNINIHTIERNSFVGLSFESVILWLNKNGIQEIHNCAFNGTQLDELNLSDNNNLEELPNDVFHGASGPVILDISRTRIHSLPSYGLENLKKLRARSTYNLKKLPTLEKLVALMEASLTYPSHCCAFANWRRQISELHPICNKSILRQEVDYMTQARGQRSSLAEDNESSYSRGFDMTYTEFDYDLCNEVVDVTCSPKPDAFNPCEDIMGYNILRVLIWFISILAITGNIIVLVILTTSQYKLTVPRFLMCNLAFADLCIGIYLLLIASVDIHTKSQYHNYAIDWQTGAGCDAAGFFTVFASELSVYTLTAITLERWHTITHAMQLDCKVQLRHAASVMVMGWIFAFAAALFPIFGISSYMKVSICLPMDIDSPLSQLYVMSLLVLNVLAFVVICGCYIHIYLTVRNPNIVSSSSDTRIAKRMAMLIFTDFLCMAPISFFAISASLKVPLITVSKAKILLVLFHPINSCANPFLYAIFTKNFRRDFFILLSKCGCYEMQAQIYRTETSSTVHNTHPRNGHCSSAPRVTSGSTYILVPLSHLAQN
Description: Agonistic activity at the human FSH receptor expressed in CHO cells (CRE-luciferase reporter). It is filed as cell-based. As to conditions: CHO cells stably transfected with the human FSH receptor and a CRE/luciferase reporter, 4 hours of incubation, pEC50 is -logEC50; for EC50: read-out: hFSHRago (CHO luc) pEC50 (converted). The protocol:
For the determination a software program such as MathIQ (version 2.0, ID Business Solutions Limited) can be used.
Agonistic activity of compounds at the human FSH receptor expressed in CHO cells
Agonistic activity of the compounds at the human FSH receptor was determined in Chinese Hamster Ovary (CHO) cells stably transfected with the human FSH receptor and cotransfected with a cAMP responsive element (CRE)/promotor directing the expression of a firefly luciferase reporter gene. […] The final concentration of DMSO was 1%. After 4 hours of incubation, plates were allowed to adjust to room temperature for 1 hour. Then, Luclite (PerkinElmer) solution was added to the wells and cells were allowed to lyse for at least 1 hour at room temperature. Subsequently, luciferase activity was measured in a luminescence counter. The signal is expressed as counts per second (cps).
(Reporter assays use an easily measured gene product as a stand-in for the process of interest.)

`COc1cc2c(cc1-c1cnccn1)-c1c(-c3cccs3)c3c(n1CC2)C(=O)N(C(C)(C)C)CCC3` [4i, 9-tert-butyl-2-(pyrazin-2-yl)-3-methoxy-13-(2-thienyl)-5,6,9,10,11,12-hexahydro-8H-azepino[4',3':4,5]pyrrolo[2,1-a]isoquinolin-8-one]: the EC50 is 13.8 nM.

On to “9-tert-butyl-3-methoxy-2-pyridin-3-yl-14-(1,3-thiazol-5-yl)-5,6,10,11,12,13-hexahydroazocino[4',3':4,5]pyrrolo[2,1-a]isoquinolin-8(9H)-one [11j]”, for which the “hFSHRago (CHO luc) pEC50” value is reported as 8.51.

With `COc1cc2c(cc1-c1cnn(C)c1)-c1c(-c3cccs3)c3c(n1CC2)C(=O)N(C(C)(C)C)CCC3` [4h], the EC50 is 64.6 nM.

Take `COc1cc2c(cc1-c1cccnc1)-c1c(-c3cccs3)c3c(n1CC2)C(=O)N(C(C)(C)C)CCSC3` [9k, 9-tert-butyl-3-methoxy-2-pyridin-3-yl-14-(2-thienyl)-5,6,10,11,13,13a-hexahydro-7aH-[1,4]thiazocino[7',6':4,5]pyrrolo[2,1-a]isoquinolin-8(9H)-one]: the EC50 is 0.316 nM.

Consider `COc1cc2c(cc1[C@@H](O)[C@H](O)CO)-c1c(-c3cccs3)c3c(n1CC2)C(=O)N(C(C)(C)C)CCCC3` [21i], for which the EC50 was 5.25 nM.
